Results reported in patent US6436915B1, “Pyrazole compounds” (Kinetek Pharmaceuticals, Inc., priority 2000, dated 2002).

Tests used:
integrin linked kinase = target: T1, integrin linked kinase (Homo sapiens, UniProt Q13418); test: In vitro kinase inhibition assay, integrin linked kinase (radioactive phosphate incorporation, scintillation counting); format: biochemical; conditions: full-length recombinant ILK expressed in insect cells; substrate CKRRRLASLR-amide; 15 min at room temperature
T1 construct: The target integrin linked kinase is a full-length recombinant protein expressed in sF9 insect cells by baculovirus infection; GST (N); made in house; host or cells: Baculovirus; virus made in Sf9 cells, litre-scale expression in Hi5 insect cells
T1 sequence (Q13418 1-452): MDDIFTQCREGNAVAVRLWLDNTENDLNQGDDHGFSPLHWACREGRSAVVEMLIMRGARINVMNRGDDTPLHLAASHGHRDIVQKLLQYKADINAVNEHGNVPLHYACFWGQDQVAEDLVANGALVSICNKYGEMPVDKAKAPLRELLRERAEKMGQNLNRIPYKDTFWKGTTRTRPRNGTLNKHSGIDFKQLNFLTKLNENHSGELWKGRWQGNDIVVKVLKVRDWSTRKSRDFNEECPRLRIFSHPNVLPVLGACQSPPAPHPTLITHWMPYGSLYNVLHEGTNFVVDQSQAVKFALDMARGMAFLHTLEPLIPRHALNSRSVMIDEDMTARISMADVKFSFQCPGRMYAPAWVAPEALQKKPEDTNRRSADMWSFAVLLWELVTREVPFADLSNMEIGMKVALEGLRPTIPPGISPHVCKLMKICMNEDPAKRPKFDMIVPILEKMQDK
Experimental: Compounds were screened using a series of disease related kinase targets, such as integrin linked kinase-1. Synthesized libraries of compounds are tested against each of the targets to find compounds that inhibit one of the targets preferentially. The desired in vitro potency of the inhibitor is such that the compound is useful as a therapeutic agent, i.e. in the nanomolar or micromolar range.
Inhibition of the targets is measured by scintillation counting; the incorporation of radioactive phosphate onto a specific substrate which is immobilized onto a filter paper at the end of the assay. To provide meaningful measurements of inhibition, the assays are performed both in the absence and presence of specific and known inhibitors, and the amount of incorporated radioactivity is compared to provide a baseline measurement.
The baseline activity is the amount of radioactivity incorporated in the absence of inhibitor. The amount of radioactivity incorporated in the presence of an inhibitor is called the ‘sample activity’, and the % inhibition is expressed by the following formula:
% inhibition=100−sample activity/baseline activity*100)
and is usually expressed in conjunction with the compound concentration. By using a range of inhibitor concentrations, the IC50 of an inhibitor is estimated (i.e. the concentration at which enzymatic activity is reduced by 50%).
Inhibition Assay: Compounds listed in Table 1 were lyophilized and stored at −20° C. Stock solutions were made by weighing out the compounds and dissolving them in dimethyl sulfoxide (DMSO) to a standard concentration, usually 20 mM, and stored at −20° C. The compounds were diluted to a starting intermediate concentration of 250 μM in 1% DMSO, then serially diluted across a row of a 96 well plate using serial 2 fold dilution steps. Diluted 100% DMSO was used as a negative control. 5 μl of each compound dilution were robotically pipetted to Costar serocluster plates maintaining the same plate format. All assays consisted of the following volumes:
and were then incubated 15 min at room temperature.
From each reaction, 10 μl of reaction mix was spotted onto Millipore Multiscreen-PH opaque plates and washed 2×10 min in 1% phosphoric acid. The plates were dried for at 40° C. for 30 min, then the substrate phosphate complexes were quantitated by scintillation counting. These Millipore plates are in a 96 well format with immobilized P81 phosphocellulose membranes. Both the phosphorylated and non-phosphorylated form of the substrate bind to the membrane while ATP (unincorporated phosphate) is removed in the subsequent wash steps.
Integrin Linked Kinase: The target integrin linked kinase is a full-length recombinant protein expressed in sF9 insect cells by baculovirus infection. The ILK1 substrate is CKRRRLASLR-amide.
Recombinant ILK protein was expressed using cultured insect cells and a baculovirus expression system. Standard techniques for DNA manipulation were used to produce recombinant DNA molecules and baculoviruses (Sambrook. J., Fritsch, E. F. and Maniatis, T. 1989. Molecular cloning, a laboratory manual. Second edition. Cold Spring Harbor Laboratory Press. NY; Crossen, R. and Gruenwald, S. 1998. Baculovirus expression Vector System Manual. 5th Edition. Pharmingen, San Diego, Calif.) but the isolation of active ILK required some ingenuity.
The ILK open reading frame (Hannigan et al., supra.), excluding the 5′ and 3′ untranslated regions, was inserted into the baculovirus transfer vector pAcG2T (Pharmingen) to produce a GST fusion protein under the control of the strong AcNPV polyhedrin promoter. A large scale plasmid preparation of the resulting transfer construct was made using a Qiagen Plasmid Midi Kit. This ILK transfer construct was then co-transfected with BaculoGold DNA (Pharmingen) into Sf9 insect cells (Invitrogen) and a high titre preparation of GST-ILK recombinant baculovirus was produced by amplification in Sf9 cells. […]

[1] = tested on: Lewis Lung Carcinoma cells; test: Anti-tumor activity in a murine model using Lewis Lung Carcinoma cells (FIG. 1); format: in vivo; conditions: FIG. 1 legend only

Row | Compound | IC50 (integrin linked kinase) [µM] | anti-tumor activity [1]
1 | COc1ccc(N/N=C2/C(=N)NN=C2N)cc1 [KP-15792, 3,5-diamino-4-(p-methoxyphenyl)hydrazonopyrazole] | 1 | anti-tumor activity
2 | N=C1NN=C(N)/C1=N/Nc1ccccc1 [KP-23194, 3,5-diamino-4-phenylhydrazonopyrazole] | 0.6 | 
3 | Cc1ccc(NN=C2C(N)=NN=C2N)cc1 [KP-23195, 3,5-diamino-4-(p-methylphenyl)hydrazonopyrazole] | 5.3 | 
4 | COc1ccc(NN=C2C(N)=NN=C2N)cc1O [KP-23197, 3,5-diamino-4-(3-hydroxy-4-methoxyphenyl)hydrazonopyrazole] | 4 | 
5 | NC1=NNC(=O)C1/N=N/c1ccccc1 (stereo not shown) [KP-23198, 3-amino-4-phenylazo-2-pyrazolin-5-one] | 17.1 | 
6 | Cc1ccc(/N=N/C2C(=O)NN=C2N)cc1 (stereo not shown) [KP-23199, 3-amino-4-(p-methylphenylazo)-2-pyrazolin-5-one] | > 20 | 
7 | COc1ccc(/N=N/C2C(=O)NN=C2N)cc1 (stereo not shown) [KP-23200, 3-amino-4-(p-methoxyphenylazo)-2-pyrazolin-5-one] | > 20 | 
8 | COc1ccc(/N=N/C2C(=O)NN=C2N)cc1O (stereo not shown) [KP-23201, 3-amino-4-(3-hydroxy-4-methyoxyphenylazo)-2-pyrazolin-5-one] | 18 | 
9 | O=C1NNC(=O)C1=NNc1ccccc1 [KP-23202, 4-phenylhydrazonopyrazolin-3,5-dione] | > 20 | 
10 | Cc1ccc(NN=C2C(=O)NNC2=O)cc1 [KP-23203, 4-(p-methylphenyl)hydrazonopyrazolin-3,5-dione] | > 20 | 
11 | COc1ccc(NN=C2C(=O)NNC2=O)cc1 [KP-23204, 4-(p-methoxyphenyl)hydrazonopyrazolin-3,5-dione] | > 20 | 
12 | COc1ccc(NN=C2C(=O)NNC2=O)cc1O [KP-23205, 4-(3-hydroxy-4-methyoxyphenyl)hydrazonopyrazolin-3,5-dione] | > 20 | 
13 | NC1=NN=C(N)C1=NNc1ccc(S(=O)(=O)O)cc1 [KP-27288, 4-[N′-(3,5-diaminopyrazole-4-ylidene)hydrazino]benzenesulfonic acid] | > 20 | 
14 | NC1=NN=C(N)C1=NNN1CCOCC1 [KP-27289, 3,5-diamino-4-morpholinylhydrazonopyrazole] | 9.6 | 
15 | NC1=NN=C(N)C1=NNCCN1CCOCC1 [KP-27290, 3,5-diamino-4-(2-morpholinylethyl)hydrazonopyrazole] | 8.2 | 
16 | NC1=NN=C(N)C1=NNc1ncc[nH]1 [KP-27291, 3,5-diamino-4-(2-imidazolyl)hydrazonopyrazole] | 28 | 
17 | NC1=NN=C(N)C1=NNc1cc[nH]n1 [KP-27292, 3,5-diamino-4-(3-pyrazolyl)hydrazonopyrazole] | 8 | 
18 | NC1=NN=C(N)C1=NNc1nccs1 [KP-27293, 3,5-diamino-4-(2-thiazolyl)hydrazonopyrazole] | 0.9 | 

The next lines start with results.

Row | IC50 (integrin linked kinase) [µM] | Compound | anti-tumor activity [1]
19 | 0.6 | NC1=NN=C(N)C1=NNc1cccc2ccccc12 [KP-27294, 3,5-diamino-4-(1-naphthyl)hydrazonopyrazole] | 
20 | 19.3 | NC1=NN=C(N)C1=NNc1ccc(S(=O)(=O)O)c2ccccc12 [KP-27295, 4-[N′-(3,5-Diaminopyrazol-4-ylidene)hydrazino]naphthalene-1-sulfonic acid] | 
21 | 13 | NC1=NN=C(N)C1=NNCC1CCNCC1 [KP-27386, 3,5-diamino-4-(4-piperidinylmethyl)hydrazonopyrazole] | 
22 | > 20 | NC1=NN=C(N)C1=NNc1nccnn1 [KP-27387, 3,5-diamino-4-(3-[1,2,4]triazinyl)hydrazonopyrazole] | 
23 | 13 | NC1=NN=C(N)C1=NNc1ccc(C(=O)O)cc1 [KP-27388, 4-[N′-(3,5-diaminopyrazol-4-ylidene)hydrazino]benzoic acid] | 
24 | > 20 | NC1=NN=C(N)C1=NNc1ccc(O)cc1 [KP-27389, 3,5-diamino-4-(p-hydroxyphenyl)hydrazonopyrazole] | 
25 | 1.2 | NC1=NN=C(N)C1=NNc1ccc(Cl)cc1 [KP-27390, 3,5-diamino-4-(p-chlorophenyl)hydrazonopyrazole] | 
26 | 5 | CC(=O)Nc1ccc(NN=C2C(N)=NN=C2N)cc1 [KP-27392, 3,5-diamino-4-(p-acetoaminophenyl)hydrazonopyrazole] | 
27 | 3 | NC1=NN=C(N)C1=NNc1c(O)ccc2ccccc12 [KP-27393, 3,5-diamino-4-(2-hydroxynaphthyl)hydrazonopyrazole] | 
